From patent publication US4652553A, “Steroidal glycolipids as host resistance stimulators” (priority 1985, dated 1987)

Test system: Pseudomonas aeruginosa
Assay: In vivo protection of cyclophosphamide-immunocompromised mice against Pseudomonas aeruginosa (LD50, protective index)
Design: species or system Pseudomonas aeruginosa (Immunotype 1); CFl female mice
Conditions: Table 3; cyclophosphamide-treated mice; dose not stated in table (initial test dose 40 mg per kg)
Protocol: Groups of 15-20 CFl femal mice (Charles River Breeding, Cambridge, MA) weighing 22-28 gm were injected intraperitoneally (i.p.) with cyclophosphamide (Cytoxan; CY) at 250 mg per kg body weight. One to two hours later they were typically injected again with the test material by the route specified. Four days later, the mice were divided into groups of five, each of which were injected i.p. with a different dilution of a suspension of Pseudomonas aeruginosa (Immunotype 1). The number of survivors was determined periodically and an estimate was made of the number of CFU of Pseudomonas organisms necessary to cause 50% lethality by the cumulative method of L. J. Reed and H. Muench (Am. J. Hygiene 27 (1938) 493-497). A protective index (P.I.) was defined as the LD50 for the mice receiving cyclophosphamide and the test compound divided by the LD50 for the mice recieving cyclophosphamide alone. All control mice were injected with aqueous vehicle in the same route and schedule as the test animals.
All compounds for dosing were suspended in a sterile medium referred to as "aqueous vehicle" which contains 0.9% sodium chloride, 0.5% carboxymethyl cellulose, 0.4% Tween 80, and 0.9% benzyl alcohol unless otherwise stated. Test materials were evaluated via subcutaneous (s.c.), i.p., intramuscular (i.m.), orally (p.o.). and intravenous (i.v.) routes of administration. […]

C[C@H](N)[C@H]1CC[C@H]2[C@@H]3CC=C4C[C@@H](OCCCCCCS[C@@H]5O[C@H](CO)[C@@H](O)[C@H](O)[C@@H]5O)CC[C@]4(C)[C@H]3CC[C@]12C [Example 14, 6-(20S-Amino-pregn-5-en-3β-yloxy)hexyl 1-thio-β-D-mannopyranoside]
Protective Index (log): 4.37 log
